Assay [1] has as its target T1, CBS-FL mutant (293T-CBS Q222A) (Homo sapiens, UniProt P35520, Q222A).
T1 construct: human CBS or hCSE full-length (CBS-FL or CSE) was subcloned into pGEX-KG, pcDNA3 or pCDH vector; expressed in transfected cells
As to the kind of experiment: H2S in HEK293T cells stably expressing CBS Q222A (AzMC probe). The following applies: 5 and 10 μM CH004, 8 h. It counts as cell-based. How it is done: (§1) HEK293T cells were transiently transfected with empty vector (EV, i and ii), hCBS-FL (iii and iv) or hCSE (v and vi) plasmids, followed by incubation with DMSO (i–iii and v) or 10 μM CH004 (iv and vi) for 8 h before staining with 50 μM AzMC, a H2S-specific probe (“Materials and Methods” section). For larger fluorescent and bright-field images, please see Supplementary Figure 4. The expression levels of hCBS or hCSE in HEK293T cells after transient transfections were determined by western blotting using an anti-CBS antibody (3E1, 1:2000; Abnova) or anti-CSE antibody (1:500, GeneTex). The densities of protein bands for hCBS or hCSE in the blots were quantified with the ImageJ software (National Institutes of Health, Bethesda, MD, USA) and expressed as ratios of respective control (EV group). […] The fluorescent images of the H2S (blue) were accordingly quantified (“Materials and Methods” section) with ImageJ. […] A representative fluorescence image from three independent experiments is shown. […]
(§2) H2S levels in living cells were detected using a H2S-specific fluorescent probe according to a protocol described previously[31],[55]. […] After incubation with 50 μM AzMC at 37 °C for 30 min, the cells were washed 4 times with PBS, and the fluorescent images were recorded with excitation by 405 nm laser by using a A1Si (Nikon) confocal microscope. […]

For assay [2], the target named is T2, human dopa decarboxylase (hDDC) (Homo sapiens, UniProt P20711).
T2 construct: made in house
T2 sequence (P20711 whole entry): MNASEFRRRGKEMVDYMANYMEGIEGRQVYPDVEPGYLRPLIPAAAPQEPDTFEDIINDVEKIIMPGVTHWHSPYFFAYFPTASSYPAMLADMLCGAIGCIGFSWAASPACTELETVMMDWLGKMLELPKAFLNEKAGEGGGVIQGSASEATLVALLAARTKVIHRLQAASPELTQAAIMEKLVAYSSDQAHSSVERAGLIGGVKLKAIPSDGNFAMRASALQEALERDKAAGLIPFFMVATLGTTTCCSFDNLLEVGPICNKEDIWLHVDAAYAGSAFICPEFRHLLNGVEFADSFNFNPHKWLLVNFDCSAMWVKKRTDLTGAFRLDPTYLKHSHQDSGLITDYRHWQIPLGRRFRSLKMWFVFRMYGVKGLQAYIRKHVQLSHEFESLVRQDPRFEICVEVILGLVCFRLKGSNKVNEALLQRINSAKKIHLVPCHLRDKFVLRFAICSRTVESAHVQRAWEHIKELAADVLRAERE
Description: purified hDDC enzyme assay. It counts as biochemical. How it is done: (§3) The IC50 values of CH004 for hCBS-413, hCBS-413 mutants, hCBS-FL, hCSE or hDDC were determined according to the standard assay conditions otherwise indicated.

Assay [3] deals with T3, hCBS-FL (Homo sapiens, UniProt P35520).
T3 sequence (P35520 1-551): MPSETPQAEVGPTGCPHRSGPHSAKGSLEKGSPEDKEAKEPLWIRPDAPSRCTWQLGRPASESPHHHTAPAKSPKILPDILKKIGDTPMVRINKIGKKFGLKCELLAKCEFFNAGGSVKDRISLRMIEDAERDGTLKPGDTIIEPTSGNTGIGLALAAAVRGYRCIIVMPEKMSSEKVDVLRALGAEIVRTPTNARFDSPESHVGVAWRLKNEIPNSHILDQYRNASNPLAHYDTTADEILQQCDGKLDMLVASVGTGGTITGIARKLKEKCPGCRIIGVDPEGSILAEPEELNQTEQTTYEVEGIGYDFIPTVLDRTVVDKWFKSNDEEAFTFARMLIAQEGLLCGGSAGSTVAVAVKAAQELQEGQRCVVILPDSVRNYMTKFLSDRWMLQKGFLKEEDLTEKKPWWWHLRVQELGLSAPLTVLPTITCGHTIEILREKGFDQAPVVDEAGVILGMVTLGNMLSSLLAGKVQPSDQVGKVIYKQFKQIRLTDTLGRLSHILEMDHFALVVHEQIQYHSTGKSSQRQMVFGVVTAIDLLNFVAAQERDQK
As to the kind of experiment: purified hCBS full-length enzyme assay. It counts as biochemical. On the set-up: human CBS or hCSE full-length (CBS-FL or CSE) was subcloned into pGEX-KG, pcDNA3 or pCDH vector; GST (N); made in house; host or cells: E. coli BL21. The following applies: standard conditions. How it is done: as §3
^2The IC50 were determined for hCBS-FL.

For assay [4], the target named is T3, hCBS-FL. As to the kind of experiment: H2S in HEK293T cells transiently expressing hCBS (AzMC probe). It counts as cell-based. To be noted: 10 μM, 8 h. How it is done: as §1, §2

In general, IC50 refers to the concentration that inhibits the measured activity by half. Read a high IC50 as weaker potency.

Structures are written as SMILES. Where “and” joins values, the source holds several entries; their conditions need not be identical. Equal values may be shown once. Entries after “also recorded” stand apart in the source; their conditions may differ.

With `Cn1nc(Cc2ccccc2)nc2c(=O)n(C)c(=O)nc1-2` [CH004, 3-benzyl-1,6-dimethylpyrimido[5,4-e][1,2,4]triazine-5,7(1H,6H)-dione], in assay [1], the “effect on H2S” value is listed as “no significant decrease; also recorded: hardly affected”. For the same molecule, the “Fold selectivity hDDC vs hCBS-413” value in assay [2] (IC50 of hDDC / IC50 of hCBS-413) is > 400 (> 400) fold. Further, the IC50 was > 400000 nM in assay [2] (standard conditions); ~590 nM and 590 nM against hCBS-FL [3]. On hCBS-FL [4], the “decrease in H2S” value is ~ 50%.

These data come from PMC6158189, “A pharmacological probe identifies cystathionine β-synthase as a new negative regulator for ferroptosis” (Cell Death & Disease, 2018).
